Laboratory results published in PMC7700572, “Synthesis, Kinetic and Conformational Studies of 2-Substituted-5-(β-D-glucopyranosyl)-pyrimidin-4-ones as Potential Inhibitors of Glycogen Phosphorylase” (Molecules, 2020).

Each compound was assayed against T1, rabbit muscle glycogen phosphorylase (RMGP) (Oryctolagus cuniculus, UniProt P00489) (assay: enzyme kinetics in the direction of glycogen synthesis, RMGP isolated from rabbit skeletal muscle, […] AMP).
T1 construct: gene PYGM
T1 sequence (P00489 2-843): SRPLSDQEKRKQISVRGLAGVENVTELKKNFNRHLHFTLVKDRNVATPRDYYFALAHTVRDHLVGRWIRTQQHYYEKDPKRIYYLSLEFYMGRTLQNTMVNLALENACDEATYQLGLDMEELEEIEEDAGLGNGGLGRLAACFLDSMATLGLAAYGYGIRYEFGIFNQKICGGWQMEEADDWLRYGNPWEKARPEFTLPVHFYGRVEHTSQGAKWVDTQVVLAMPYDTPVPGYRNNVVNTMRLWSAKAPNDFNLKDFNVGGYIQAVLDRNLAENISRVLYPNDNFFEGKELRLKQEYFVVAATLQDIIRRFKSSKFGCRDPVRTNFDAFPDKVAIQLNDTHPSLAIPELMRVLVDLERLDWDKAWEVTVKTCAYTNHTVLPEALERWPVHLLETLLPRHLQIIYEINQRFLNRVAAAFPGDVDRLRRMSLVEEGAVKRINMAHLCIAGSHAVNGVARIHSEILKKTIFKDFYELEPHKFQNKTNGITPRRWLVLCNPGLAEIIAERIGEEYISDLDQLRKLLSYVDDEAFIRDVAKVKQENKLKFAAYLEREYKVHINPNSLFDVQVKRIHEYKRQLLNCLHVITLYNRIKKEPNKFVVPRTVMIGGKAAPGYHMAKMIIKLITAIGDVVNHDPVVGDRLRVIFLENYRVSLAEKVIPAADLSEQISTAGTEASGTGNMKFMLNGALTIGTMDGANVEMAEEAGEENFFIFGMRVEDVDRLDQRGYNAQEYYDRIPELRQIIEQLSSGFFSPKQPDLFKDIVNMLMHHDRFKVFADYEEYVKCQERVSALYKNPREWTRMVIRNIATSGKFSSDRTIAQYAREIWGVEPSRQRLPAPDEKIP
Assay type: biochemical

| Structure (SMILES) | IC50 [µM] |
| --- | --- |
| O=c1[nH]cc([C@@H]2O[C@H](CO)[C@@H](O)[C@H](O)[C@H]2O)c(=O)[nH]1 [compound 4, 5-(β-D-Glucopyranosyl)pyrimidin-2,4-dione] | 88.5 ± 4.3 |
| O=c1[nH]c(Nc2ccc3[nH]c4ccccc4c(=O)c3c2)ncc1[C@@H]1O[C@H](CO)[C@@H](O)[C@H](O)[C@H]1O [compound 6, 2-[(Acridin-9(10H)-on-2-yl)amino]-5-(β-D-glucopyranosyl)pyrimidin-4(3H)-one] | 5.4 ± 0.5 |
| Nc1ncc([C@@H]2O[C@H](CO)[C@@H](O)[C@H](O)[C@H]2O)c(=O)[nH]1 [compound 5, 2-Amino-5-(β-D-glucopyranosyl)pyrimidin-4(3H)-one] | 396 ± 10.8 |
